Assay results as given in ChEMBL document CHEMBL5647692, “The novel dual PI3K/mTOR inhibitor NVP-BGT226 displays cytotoxic activity in both normoxic and hypoxic hepatocarcinoma cells” (Oncotarget, 2015).
Calls of active or inactive are those of the source.

Experiments:
SNU-475 [1] = test: Cytotoxicity against human SNU-475 cells assessed as reduction in cell viability at 0.5 to 5 uM incubated for 24 hrs by MTT assay; assay type: functional, cell-based; conditions: dose 0.5-5 µM
Hep 3B2 = test: Induction of apoptosis in human Hep3B cells incubated for 24 hrs by Annexin-V/7-AAD staining based muse cell analyzer method; assay type: functional; conditions: dose 0.01-0.5 µM
SNU-475 [2] = test: Induction of apoptosis in human SNU-475 cells incubated for 24 hrs by Annexin-V/7-AAD staining based muse cell analyzer method; assay type: functional; conditions: dose 0.01-0.5 µM
SNU-449 = test: Induction of apoptosis in human SNU-449 cells assessed as late apoptotic cells at 1.5 uM incubated for 24 hrs by Annexin-V/7-AAD staining based muse cell analyzer method (reference value: 5.03 %); assay type: functional
[3] = Inhibition of PI3K/Akt/mTOR signaling pathway in human Mahlavu cells assessed as reduction in phosphorylation of mTORC1/2 incubated for 1 hr under normoxia condition by Western blotting analysis; assay type: cell-based; conditions: dose 0.25-1 µM
[4] = Inhibition of PI3K/Akt/mTOR signaling pathway in human Mahlavu cells assessed as reduction in phosphorylation of Akt at 1 to 10 nM incubated for 1 hr under hypoxia condition by Western blotting analysis; assay type: cell-based; conditions: dose 1-10 nM
[5] = Inhibition of PI3K/Akt/mTOR signaling pathway in human SNU-475 cells assessed as reduction in phosphorylation of Akt at 1 to 10 nM incubated for 1 hr under normoxia condition by Western blotting analysis; assay type: cell-based; conditions: dose 1-10 nM
[6] = Inhibition of PI3K/Akt/mTOR signaling pathway in human SNU-475 cells assessed as reduction in S6 phosphorylation at 1 to 10 nM incubated for 1 hr under normoxia condition by Western blotting analysis; assay type: cell-based; conditions: dose 1-10 nM
Mahlavu [7] = test: Induction of autophagy in human Mahlavu cells assessed as decreased expression of SQSTM1/p62 level incubated for 24 hrs under hypoxia condition by Western blot analysis; assay type: functional, cell-based; conditions: dose 0.1-0.5 µM
Mahlavu [8] = test: Induction of autophagy in human Mahlavu cells assessed as increased expression of LC3 A/B II at 0.5 uM incubated for 24 hrs in presence of chloroquine under hypoxia condition by Western blot analysis; assay type: functional, cell-based

COc1ccc(-c2ccc3ncc4c(c3c2)n(-c2ccc(N3CCNCC3)c(C(F)(F)F)c2)c(=O)n4C)cn1 [BGT-226 FREE BASE]
32.14%: Activity (SNU-449)
active: Activity (SNU-475 [1]) | Activity (Hep 3B2) Dose-Dependent Effect | Activity (SNU-475 [2]) Dose-Dependent Effect | inhibition [3] Dose-Dependent Effect | inhibition [4] | inhibition [5] | inhibition [6] | Activity (Mahlavu [7]) Dose-Dependent Effect | Activity (Mahlavu [8])
